Measured values reported in the NIST ThermoML archive (doi:10.1021/je100522z).
Numbers after ± are expanded uncertainties.

Tests used:
[1] = 101.33 kPa, Liquid
[2] = molar heat capacity at constant pressure; settings: 101.33 kPa, Liquid, Small sample (50 mg) DSC
[3] = excess molar enthalpy (molar enthalpy of mixing); xn = mol fraction of the nth substance listed; settings: 101.3 kPa, Liquid, Calvet calorimetry

C[n+]1ccn(CCO)c1.O=C([O-])C(F)(F)F
mass density ([1]; 293.15 K): 1370.39 ± 1.8 kg/m3 | mass density ([1]; 298.15 K): 1366.36 ± 1.8 kg/m3 | mass density ([1]; 303.15 K): 1362.51 ± 1.8 kg/m3 | mass density ([1]; 313.15 K): 1354.8 ± 1.7 kg/m3 | mass density ([1]; 323.15 K): 1346.98 ± 1.7 kg/m3 | mass density ([1]; 333.15 K): 1339.46 ± 1.7 kg/m3 | mass density ([1]; 343.15 K): 1331.98 ± 1.7 kg/m3 | molar heat capacity at constant pressure ([2]; 283.15 K): 362 ± 29 J/K/mol | molar heat capacity at constant pressure ([2]; 293.15 K): 367 ± 30 J/K/mol | molar heat capacity at constant pressure ([2]; 303.15 K): 371 ± 30 J/K/mol | molar heat capacity at constant pressure ([2]; 313.15 K): 376 ± 31 J/K/mol | molar heat capacity at constant pressure ([2]; 323.15 K): 381 ± 31 J/K/mol | molar heat capacity at constant pressure ([2]; 333.15 K): 387 ± 31 J/K/mol | molar heat capacity at constant pressure ([2]; 343.15 K): 394 ± 32 J/K/mol

CCOP(=O)([O-])OCC.CCn1cc[n+](C)c1 [1-ethyl-3-methylimidazolium diethyl phosphate]
mass density ([1]; 293.15 K): 1148.92 ± 0.98 kg/m3 | mass density ([1]; 298.15 K): 1145.47 ± 0.97 kg/m3 | mass density ([1]; 303.15 K): 1142.03 ± 0.96 kg/m3 | mass density ([1]; 313.15 K): 1135.19 ± 0.94 kg/m3 | mass density ([1]; 323.15 K): 1128.57 ± 0.91 kg/m3 | mass density ([1]; 333.15 K): 1121.94 ± 0.89 kg/m3 | mass density ([1]; 343.15 K): 1115.36 ± 0.86 kg/m3 | molar heat capacity at constant pressure ([2]; 283.15 K): 517 ± 42 J/K/mol | molar heat capacity at constant pressure ([2]; 293.15 K): 528 ± 43 J/K/mol | molar heat capacity at constant pressure ([2]; 303.15 K): 533 ± 43 J/K/mol | molar heat capacity at constant pressure ([2]; 313.15 K): 540 ± 44 J/K/mol | molar heat capacity at constant pressure ([2]; 323.15 K): 545 ± 44 J/K/mol | molar heat capacity at constant pressure ([2]; 333.15 K): 547 ± 44 J/K/mol | molar heat capacity at constant pressure ([2]; 343.15 K): 557 ± 45 J/K/mol

CCOP(=O)([O-])OCC.CCn1cc[n+](C)c1 [1-ethyl-3-methylimidazolium diethyl phosphate] + O
excess molar enthalpy ([3]; 313.13 K, x2 = 0.2497): -0.813 ± 0.0335 kcal/mol | excess molar enthalpy ([3]; 313.13 K, x2 = 0.2506): -0.815 ± 0.0335 kcal/mol | excess molar enthalpy ([3]; 313.13 K, x2 = 0.5025): -1.34 ± 0.055 kcal/mol | excess molar enthalpy ([3]; 313.13 K, x2 = 0.5036): -1.34 ± 0.055 kcal/mol | excess molar enthalpy ([3]; 313.13 K, x2 = 0.7514): -1.25 ± 0.0502 kcal/mol | excess molar enthalpy ([3]; 313.13 K, x2 = 0.7538): -1.25 ± 0.0502 kcal/mol | excess molar enthalpy ([3]; 333.13 K, x2 = 0.2456): -0.786 ± 0.0311 kcal/mol | excess molar enthalpy ([3]; 333.13 K, x2 = 0.2473): -0.786 ± 0.0311 kcal/mol | excess molar enthalpy ([3]; 333.13 K, x2 = 0.4977): -1.31 ± 0.0526 kcal/mol | excess molar enthalpy ([3]; 333.13 K, x2 = 0.508): -1.32 ± 0.055 kcal/mol | excess molar enthalpy ([3]; 333.13 K, x2 = 0.7491): -1.23 ± 0.0502 kcal/mol | excess molar enthalpy ([3]; 333.13 K, x2 = 0.7512): -1.22 ± 0.0502 kcal/mol | excess molar enthalpy ([3]; 348.12 K, x2 = 0.2452): -0.779 ± 0.0311 kcal/mol | excess molar enthalpy ([3]; 348.12 K, x2 = 0.2477): -0.796 ± 0.0335 kcal/mol | excess molar enthalpy ([3]; 348.12 K, x2 = 0.4992): -1.29 ± 0.0526 kcal/mol | excess molar enthalpy ([3]; 348.12 K, x2 = 0.4996): -1.29 ± 0.0526 kcal/mol | excess molar enthalpy ([3]; 348.12 K, x2 = 0.7481): -1.19 ± 0.0478 kcal/mol | excess molar enthalpy ([3]; 348.12 K, x2 = 0.7485): -1.18 ± 0.0478 kcal/mol

CCn1cc[n+](C)c1.O=S(=O)([O-])O [1-ethyl-3-methylimidazolium hydrogen sulfate]
mass density ([1]; 293.15 K): 1369.28 ± 2.9 kg/m3 | mass density ([1]; 298.15 K): 1365.79 ± 2.9 kg/m3 | mass density ([1]; 303.15 K): 1362.63 ± 2.9 kg/m3 | mass density ([1]; 313.15 K): 1356.27 ± 2.9 kg/m3 | mass density ([1]; 323.15 K): 1350.14 ± 2.8 kg/m3 | mass density ([1]; 333.15 K): 1344.38 ± 2.8 kg/m3 | mass density ([1]; 343.15 K): 1338.46 ± 2.8 kg/m3 | molar heat capacity at constant pressure ([2]; 283.15 K): 290 ± 24 J/K/mol | molar heat capacity at constant pressure ([2]; 293.15 K): 294 ± 24 J/K/mol | molar heat capacity at constant pressure ([2]; 303.15 K): 297 ± 24 J/K/mol | molar heat capacity at constant pressure ([2]; 313.15 K): 302 ± 25 J/K/mol | molar heat capacity at constant pressure ([2]; 323.15 K): 306 ± 25 J/K/mol | molar heat capacity at constant pressure ([2]; 333.15 K): 313 ± 25 J/K/mol | molar heat capacity at constant pressure ([2]; 343.15 K): 324 ± 26 J/K/mol

CCn1cc[n+](C)c1.CS(=O)(=O)[O-] [1-ethyl-3-methylimidazolium methanesulfonate]
mass density ([1]; 293.15 K): 1247.31 ± 1.3 kg/m3 | mass density ([1]; 298.15 K): 1243.83 ± 1.3 kg/m3 | mass density ([1]; 303.15 K): 1240.45 ± 1.3 kg/m3 | mass density ([1]; 313.15 K): 1233.48 ± 1.3 kg/m3 | mass density ([1]; 323.15 K): 1227.03 ± 1.3 kg/m3 | mass density ([1]; 333.15 K): 1220.33 ± 1.2 kg/m3 | mass density ([1]; 343.15 K): 1213.79 ± 1.2 kg/m3 | molar heat capacity at constant pressure ([2]; 283.15 K): 327 ± 27 J/K/mol | molar heat capacity at constant pressure ([2]; 293.15 K): 327 ± 27 J/K/mol | molar heat capacity at constant pressure ([2]; 303.15 K): 330 ± 27 J/K/mol | molar heat capacity at constant pressure ([2]; 313.15 K): 334 ± 27 J/K/mol | molar heat capacity at constant pressure ([2]; 323.15 K): 339 ± 28 J/K/mol | molar heat capacity at constant pressure ([2]; 333.15 K): 344 ± 28 J/K/mol | molar heat capacity at constant pressure ([2]; 343.15 K): 350 ± 28 J/K/mol

CCn1cc[n+](C)c1.COS(=O)(=O)[O-] [1-ethyl-3-methylimidazolium methylsulfate]
mass density ([1]; 293.15 K): 1291.15 ± 1.5 kg/m3 | mass density ([1]; 298.15 K): 1287.75 ± 1.5 kg/m3 | mass density ([1]; 303.15 K): 1284.37 ± 1.5 kg/m3 | mass density ([1]; 313.15 K): 1277.61 ± 1.5 kg/m3 | mass density ([1]; 323.15 K): 1270.87 ± 1.4 kg/m3 | mass density ([1]; 333.15 K): 1264.22 ± 1.4 kg/m3 | mass density ([1]; 343.15 K): 1257.72 ± 1.4 kg/m3 | molar heat capacity at constant pressure ([2]; 283.15 K): 324 ± 26 J/K/mol | molar heat capacity at constant pressure ([2]; 293.15 K): 330 ± 27 J/K/mol | molar heat capacity at constant pressure ([2]; 303.15 K): 332 ± 27 J/K/mol | molar heat capacity at constant pressure ([2]; 313.15 K): 337 ± 27 J/K/mol | molar heat capacity at constant pressure ([2]; 323.15 K): 343 ± 28 J/K/mol | molar heat capacity at constant pressure ([2]; 333.15 K): 347 ± 28 J/K/mol | molar heat capacity at constant pressure ([2]; 343.15 K): 354 ± 29 J/K/mol
